Patent US20230172894A1, “COMBINATION TREATMENT FOR FUMARATE-RELATED DISEASES” (IMCYSE SA, priority 2020, published 2023)
Where a name gives a salt, the structure may show the parent alone. Read-outs that look alike come from different tables or passages of the source.

Key:
[1] = test system: experimental auto-immune encephalomyelitis (EAE) development in mice; conditions: Example 4; for mice died in group: 16 mice per group; for disease onset: peptide 30 μg/Alum s.c. days 4, 9, 14, 19, BG-12 100 mg/kg p.o. BID days 0 to 27; for disease onset / AUC (area under the curve) of EAE scores / MMS (mean maximal score) / end score (clinical EAE score 0-5): vs negative control, combinations also vs peptides only or BG-12 only
Source text: Example 4: Effect of the therapeutic administration of an immunogenic peptide comprising a human MOG201-212 MHCII T cell epitope linked to a KHCPYC oxidoreductase motif in combination with dimethyl fumarate (BG-12, […]™) on experimental auto-immune encephalomyelitis (EAE) development in mice.
The study used a total of 96 female C57BL/6 mice (Taconic Biosciences, 9 weeks old on Day 0). Mice were acclimated for 7 days prior to the first injection. Mice were assigned to groups in a balanced manner to achieve similar average weight across the groups at the start of the study.
Treatment 1 was administered once on each of the days indicated in Table 5, s.c., at a volume of 0.05 mL/site, each mouse receiving injection at two sites, for a total of 0.1 mL/mouse/dosing day. IMCY-0189 or P4 peptide total dose was 30 μg per administration.
(§1) BG-12 was dosed at 100 mg/kg.
(§2) All dosing were done at the same time (+/−1 hour) each dosing day. For the BID groups there were no less than 10 and no more than 14 hours between doses.
Lyophilized immunogenic peptide P4 with the sequence […] (SEQ ID NO: 176), comprising an oxidoreductase motif KHCPYC (SEQ ID NO: 77), a linker VRY, a human Myelin Oligodendrocyte Glycoprotein (MOG201-212) MHCII T cell epitope […] (SEQ ID NO: 165) and a flanking sequence TLFKK (SEQ ID NO: 267) (Smart Bioscience) was solubilized immediately before use. Lyophilized P4 was thawed at room temperature for 10 minutes, resuspended in Na Acetate buffer 50 mM NaCl 0.9% pH 5.4 and incubated at room temperature for 10 minutes. Reconstituted peptide was then mixed with Imject™ Alum Adjuvant before injection.
Treatment 2 was prepared as described in example 2.
EAE induction, scoring and statistical analysis were performed as described in example 2.
(§3) EAE development was evaluated by comparing clinical EAE readouts for all groups to the negative control (Saline/Vehicle) group.

[2] = test system: experimental auto-immune encephalomyelitis (EAE) development in mice; test: Example 3: serum neurofilament light (NF-L) levels in EAE mice; assay type: in vivo, female C57BL/6 mice; conditions: Day 28 serum, vs negative control
Method: (§4) On Day 28, blood was collected from all mice into gel clot activator tubes and allowed to clot at room temperature for ˜30 minutes. Blood is then centrifuged at ˜10000 g for 5 minutes. Serum was transferred into Eppendorf tubes and stored at −80° C. until shipment to Quanterix™. Serum Neurofilament light (NF-L) protein levels were quantified using Simoa® NF-light Advantage kit as described in example 1.

[3] = test system: experimental auto-immune encephalomyelitis (EAE) development in mice; test: Example 1: spinal cord histology (H&E inflammatory foci, anti-MBP demyelination score) in EAE mice; assay type: in vivo, female C57BL/6 mice; conditions: vs negative control, combination also vs each single treatment
Method: At the end of the study, all mice were euthanized, and spines were collected and placed in 10% buffered formalin for histological analysis.
For each spine, one H&E stained slide and one anti-MBP stained slide were prepared and analyzed. Each slide contained a section with samples from lumbar, thoracic and cervical of spinal cord (3 samples). All analysis was performed by a pathologist blinded to the experimental groups and all clinical readouts.
Inflammatory foci of approximately 20 cells were counted in each H&E stained section. When inflammatory infiltrates consisted of more than 20 cells, an estimate was made of how many foci of 20 cells were present.
Demyelination was scored in each anti-MBP (using immunohistochemistry) stained section. In anti-MBP sections, demyelination is observed as conspicuous unstained areas in white matter tracts and is associated with presence of large vacuoles. The demyelination score represents an estimate of demyelinated area for each section as follows: […]

[4] = test system: experimental auto-immune encephalomyelitis (EAE) development in mice; conditions: Example 2; for mice died in group: 16 mice per group; for disease onset: peptide 30 μg/Alum s.c. days 4, 9, 14, 19, BG-12 100 mg/kg p.o. BID days 0 to 27; for disease onset / AUC (area under the curve) of EAE scores / MMS (mean maximal score) / end score (clinical EAE score 0-5): single agents vs negative control, combinations vs peptides only or BG-12 only
Source text: Example 2: Effect of the therapeutic administration of an immunogenic peptide comprising a MOG35-55 MHCII T cell epitope linked or not to an HCPYC oxidoreductase motif in combination with dimethyl fumarate (BG-12, […]™) on experimental auto-immune encephalomyelitis (EAE) development in mice.
The study used a total of 96 female C57BL/6 mice (Taconic Biosciences, 10 weeks old on Day 0). Mice were acclimated for 14 days prior to the first injection. Mice were assigned to groups in a balanced manner to achieve similar average weight across the groups at the start of the study.
Treatment 1 was administered once on each of the days indicated in Table 3, s.c., at a volume of 0.05 mL/site, each mouse receiving injection at two sites, for a total of 0.1 mL/mouse/dosing day. IMCY-0189 or MOG35-55 peptide total dose was 30 μg per administration.
as §1, §2
Lyophilized mouse MOG35-55 peptide with the sequence […] (SEQ ID NO:205), comprising the mouse Myelin Oligodendrocyte Glycoprotein (MOG35-55) MHCII T cell epitope […] (SEQ ID NO:169), was solubilized immediately before use. Lyophilized MOG35-55 peptide was thawed at room temperature for 10 minutes, resuspended in Na Acetate buffer 50 mM NaCl 0.9% pH 5.4 and incubated at room temperature for 10 minutes. Reconstituted MOG35-55 peptide was then mixed with Imject™ Alum Adjuvant before injection. Note that the positions 35 to 55 refer to the mature protein, i.e. after cleavage of the signal peptide (AA 1-29), defined by SEQ ID NO: 208. In the full-length amino acid sequence of MOG (SEQ ID NO: 184), said peptide would be at positions 64-84.
Lyophilized IMCY-0189 was thawed at room temperature for 10 minutes, resuspended in Na Acetate buffer 50 mM NaCl 0.9% pH 5.4 and incubated at room temperature for 10 minutes. Reconstituted peptide was then mixed with Imject™ Alum Adjuvant before injection.
For Treatment 2, vehicle was 0.5% HPMC, 0.2% Tween 20, and 50 mM citrate buffer at pH 4. BG-12 (Santa Cruz Biotechnology, sc-239774) and was prepared at least every 2 weeks. At each preparation the required amount of BG-12 was weighed out into a mortar and triturated with a pestle. Vehicle was then added in small increments and mixed until the final volume was reached. The material was then vortexed and sonicated in a water bath until a homogeneous suspension was obtained. Formulated BG-12 was stored at 4° C., stirring continuously.
EAE induction, scoring and statistical analysis were performed as described in example 1.
as §3

[5] = test system: experimental auto-immune encephalomyelitis (EAE) development in mice; test: Example 4: serum neurofilament light (NF-L) levels in EAE mice; assay type: in vivo, female C57BL/6 mice; conditions: Day 28 serum, vs negative control
Method: as §4
Serum neurofilaments levels were quantified as described in example 3.

| Molecule | mice died in group [1] | disease onset [1] | AUC (area under the curve) of EAE scores [1] | MMS (mean maximal score) [1] | end score (clinical EAE score 0-5) [1] | serum NF-L levels [2] | level of demyelination (anti-MBP stained sections, score 0-5) [3] | level of inflammation (inflammatory foci in H&E stained spinal cord sections) [3] | mice died in group [4] | disease onset [4] | AUC (area under the curve) of EAE scores [4] | MMS (mean maximal score) [4] | end score (clinical EAE score 0-5) [4] | serum NF-L levels [5] |
| --- | --- | --- | --- | --- | --- | --- | --- | --- | --- | --- | --- | --- | --- | --- |
| HCPYCGWYRSPFSRVVHLYR [IMCY-0189] | No mice died | postponed disease onset | statistically significant reduced | statistically significant reduced | reduced end score | statistically significant reduced NF-L levels | reduced level of both inflammation and demyelination, although not statistically significant | reduced level of both inflammation and demyelination, although not statistically significant | 1 mice | postponed disease onset | statistically significant reduced | statistically significant reduced | reduced end score | statistically significant reduced NF-L levels |
| COC(=O)/C=C/C(=O)OC [BG-12, dimethyl fumarate, reference compound] | No mice died | postponed disease onset | statistically significant reduced | statistically significant reduced | reduced end score | statistically significant reduced NF-L levels |  | reduced level of inflammation, although not statistically significant | No mice died | postponed disease onset | statistically significant reduced | statistically significant reduced | reduced end score | statistically significant reduced NF-L levels |
